Data set [1] concerns the target T1, CYP2D6 (Homo sapiens, UniProt P10635).
T1 construct: purchased Sigma Aldrich C4982
The data set can be described thus: Metabolism by cytochrome P450 2D6 (CypExpress), HPLC. Particulars: 4 h. The data set is classed as in vitro ADME. As to the method: The enzymatic activity of cytochrome P450 2D6 (CYP2D6) was evaluated following the CypExpress protocol (C4982, Sigma Aldrich, Darmstadt, Germany). The reaction buffer consisted of 5 mM glucose-6-phosphate (G6P), 2 mM nicotinamide adenine dinucleotide phosphate (NADP+), and 3,4,5-TMBS prepared in PBS at concentrations of 1000 and 1500 µM. Diltiazem was used as a positive control. The reaction was initiated by adding CYP2D6, and the mixture was vortexed for 5 min. The samples were then incubated at 37 °C with gentle shaking at 100 rpm for 4 h. The reaction was terminated by adding acetonitrile, followed by centrifugation at 800 rpm for 10 min. The supernatant was collected and analyzed using HPLC.

Data set [2] concerns the target T1, CYP2D6. The description is as above. The format is in vitro ADME.
Another data set deals with T2, COX-2 (Homo sapiens, UniProt P35354).
T2 construct: endogenous in cells; host or cells: HIEC-6 cell lysate
T2 sequence (P35354 18-604): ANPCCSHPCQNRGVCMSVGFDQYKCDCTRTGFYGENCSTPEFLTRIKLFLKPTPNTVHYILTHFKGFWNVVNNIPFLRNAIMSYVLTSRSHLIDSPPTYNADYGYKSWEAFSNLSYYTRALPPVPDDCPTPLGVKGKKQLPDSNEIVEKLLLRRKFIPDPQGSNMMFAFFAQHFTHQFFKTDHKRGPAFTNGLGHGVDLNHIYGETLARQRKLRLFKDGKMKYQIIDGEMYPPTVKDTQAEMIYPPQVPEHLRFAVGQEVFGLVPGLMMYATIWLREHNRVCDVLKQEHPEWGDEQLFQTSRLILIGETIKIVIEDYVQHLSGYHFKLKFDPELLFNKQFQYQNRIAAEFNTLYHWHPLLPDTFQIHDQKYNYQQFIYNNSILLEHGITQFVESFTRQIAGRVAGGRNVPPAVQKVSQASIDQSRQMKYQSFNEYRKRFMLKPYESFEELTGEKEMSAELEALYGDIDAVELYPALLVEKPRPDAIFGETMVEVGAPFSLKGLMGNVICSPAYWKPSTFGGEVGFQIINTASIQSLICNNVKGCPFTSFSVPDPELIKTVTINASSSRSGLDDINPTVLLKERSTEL
The data set can be described thus: Cyclooxygenase (COX-2) activity assay in HIEC-6 cell lysate. The data set is classed as biochemical. Here is the method: Cyclooxygenase (COX-2) activity assay was performed in HIEC-6 cells according to the manufacturer’s instructions (ab204699). Resorufin standards (0–20 pmol/well) were used to generate a calibration curve for quantifying sample concentrations. HIEC-6 cells were centrifuged at 500× g for 3 min and washed with PBS. The cell pellet was lysed in an ice-cold lysis buffer containing 10% Triton X-100 and a protease inhibitor cocktail in PBS for 5 min. The lysate was then centrifuged at 12,000× g for 3 min at 4 °C, and the supernatant was collected and kept on ice. Protein concentration in the supernatant was determined using a Bradford assay, with a bovine serum albumin standard curve (0–2000 µg/mL). […] This mixture was added to a 96-well plate, and the reaction was initiated by adding arachidonic acid (COX-2 substrate) dissolved in NaOH solution. The enzymatic reaction produced fluorescent resorufin dye, which was measured at excitation/emission wavelengths of λEx/Em = 535/587 nm.

A further data set has as its system HIEC-6 cells. The data set can be described thus: Cell viability CCK-8 assay in HIEC-6. The format is cell-based, Human. Particulars: 24 h incubation. As to the method:
Human intestinal epithelial cells (HIEC-6), originally obtained from the American Type Culture Collection (ATCC), were cultured in Opti-MEM™ I Reduced Serum Medium (Cat. No. 31985) supplemented with 20 mM HEPES, 10 mM L-glutamine, 10 ng/mL epidermal growth factor, and 4% fetal bovine serum (FBS) (New York, NY, USA). Cells were maintained in a humidified 5% CO2 incubator at 37 °C. Cell viability was assessed using the CCK-8 assay, a colorimetric method based on the reduction of water-soluble tetrazolium salts (WST-8) to a water-soluble formazan dye, with the resulting color intensity proportional to the number of viable cells. Briefly, cells were harvested at approximately 80% confluence, detached using trypsin-EDTA, and centrifuged at 1000 rpm for 5 min. The cell pellet was resuspended in fresh medium, and the density was adjusted to 1 × 10^6 cells/mL. A volume of 100 µL (1 × 10^5 cells/well) was seeded into a 96-well plate, with one well containing the medium only as background control. […] Subsequently, 10 µL of CCK-8 reagent was added to each well, and the plate was incubated for 4 h. Absorbance was measured at 450 nm using a microplate reader, results are expressed as the mean ± standard deviation (SD).
On the technique in general: Tetrazolium dyes change colour on reduction, which living cells bring about.

Data set [3] is described as follows: Oral bioavailability / pharmacokinetics in rats. The format is in vivo, Sprague Dawley rats. Particulars: rat serum; for Tmax: rat, serum, po. As to the method:
Male Sprague Dawley rats, aged 7–9 weeks and weighing 220 ± 20 g on average, were used for bioavailability studies. The animals were housed in the Laboratory Animal Research Unit at the University of Petra Pharmaceutical Center under controlled conditions: a temperature of 23 ± 2 °C, humidity of 55–65%, and a 12 h light/dark cycle. Prior to the experiments, the rats underwent a 10-day acclimatization period with free access to standard food and water. All procedures complied with the University of Petra’s animal use guidelines, which adhere to the standards of the Federation of European Laboratory Animal Sciences Association (FELASA). The rats were divided into three groups (n = 6 per group) and administered suspensions of GA, 3,4,5-TMBS, or 3,4,5-THBS prepared in 5% carboxymethylcellulose. Each compound was administered orally at a dose of 100 mg/kg, based on previous studies. Blood samples were collected from the retro-orbital plexus at 0.5, 1, 2, 3, 4, 6, 10, and 24 h post-administration. The samples were centrifuged at 5000 rpm for 10 min, and the serum was mixed with acetonitrile in a 1:3 ratio. After a second centrifugation at 5000 rpm for 15 min, the supernatant was collected for high-performance liquid chromatography (HPLC) analysis. HPLC analysis was conducted using a Shimadzu Class VP series system equipped with an LC-10AT VP pump, an SIL-10AD VP autosampler, and an SCL-10AVP system (Shimadzu, Kyoto, Japan). A C18 column (25 cm × 4.6 mm, 5 μm) was used, with a photodiode array detector set to a wavelength range of 200–400 nm. The mobile phase for TMBS and THBS consisted of a 50:50 (v/v) mixture of deionized water and acetonitrile containing 0.1% trifluoroacetic acid, flowing at 1 mL/min. For GA, the mobile phase was a 70:30 mixture of methanol and a water/sulfuric acid solution (100:2), also at a flow rate of 1 mL/min. The retention times for THBS and TMBS were 2.39 and 3.47 min, respectively, while GA eluted at 2.4 min, all detected at 254 nm. Results were analyzed using Lab Solution Software LC (version 5.3) and represent the average of three measurements.

Data set [4] can be described thus: DPPH radical scavenging assay. As to the method: The antioxidant properties of the compounds under study were examined using the 2,2-Diphenyl-1-picrylhydrazyl (DPPH) assay, following a well-established protocol. A DPPH solution was prepared at a concentration of 0.1 mM in methanol. […] To ensure proper reaction, the mixtures were kept in the dark and incubated at room temperature for 30 min. After incubation, the absorbance of each sample was measured at 517 nm using a UV-VIS spectrophotometer. Gallic acid was used as the reference standard, and methanol served as the blank control.
The ability of the compounds to scavenge free radicals was determined by observing the reduction of DPPH at 517 nm, with lower absorbance values indicating higher antioxidant activity. The half-maximal inhibitory concentration (IC50), defined as the concentration of the compound needed to neutralize 50% of the DPPH radicals, was calculated from the dose–response curve. All experiments were performed in triplicate, and the results are reported as the mean of three independent trials. This method is widely recognized for its reliability and reproducibility in evaluating the antioxidant potential of chemical compounds.

Setting [5] is: male, Sprague Dawley, 100 mg/kg, n = 6.

Each structure is given as a SMILES string. “Also recorded” adds a separate entry of the source.

T1 sequence (P10635 whole entry): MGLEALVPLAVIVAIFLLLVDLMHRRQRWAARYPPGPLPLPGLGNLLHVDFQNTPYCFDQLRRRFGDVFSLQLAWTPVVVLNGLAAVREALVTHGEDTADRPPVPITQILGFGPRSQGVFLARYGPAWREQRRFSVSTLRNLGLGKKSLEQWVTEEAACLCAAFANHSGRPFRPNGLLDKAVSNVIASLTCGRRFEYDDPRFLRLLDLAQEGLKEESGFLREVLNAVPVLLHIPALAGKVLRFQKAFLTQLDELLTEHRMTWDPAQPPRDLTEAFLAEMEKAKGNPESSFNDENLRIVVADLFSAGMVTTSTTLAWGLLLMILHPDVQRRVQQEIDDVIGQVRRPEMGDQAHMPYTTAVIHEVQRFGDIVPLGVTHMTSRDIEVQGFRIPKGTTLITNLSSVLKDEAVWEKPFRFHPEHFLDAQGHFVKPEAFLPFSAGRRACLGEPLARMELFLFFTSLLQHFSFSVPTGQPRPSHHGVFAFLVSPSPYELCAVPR

Take `COc1ccc([C@@H]2Sc3ccccc3N(CCN(C)C)C(=O)[C@@H]2OC(C)=O)cc1` [Diltiazem, reference compound]: the Metabolism by CYP2D6 (concentration) on CYP2D6 [1] (1000 µM) came to 849.91 ± 0.62 µM; on CYP2D6 [1] (1500 µM), 1235 ± 6.02 µM; on CYP2D6 [2] (1000 µM, 1 h), 828 ± 21.7 µM; on CYP2D6 [2] (1000 µM, 3 h) it was 829 ± 78.1 µM; on CYP2D6 [2] (1500 µM, 1 h), 1287 ± 12.8 µM; on CYP2D6 [2] (1500 µM, 3 h), 1460 ± 133 µM.

In general, IC50 refers to the concentration that inhibits the measured activity by half. A high value points to weaker potency. The Cmax is the peak of the concentration-time curve. The term AUC(0-inf) denotes the area under the concentration-time curve extrapolated to infinity. Read a low AUC(0-inf) as low exposure. Usually AUC(0-t) stands for the area under the concentration-time curve up to a stated or last time point. Low readings indicate low exposure, high ones high exposure. For orientation: CL/F means the apparent clearance, not corrected for the fraction that reaches the circulation. The term half-life denotes the time in which the quantity being followed falls by half. For orientation: Tmax means the time from dosing to the highest level. For orientation: EC50 means the concentration needed to bring the measured effect to its halfway point. Read a low EC50 as an effect from little substance. As to `O=C(O)c1cc(O)c(O)c(O)c1` [GA, 3,4,5-trihydroxybenzoic acid, reference compound], at COX-2 (1 µM), the “COX-2 inhibition compared to ibuprofen” value is reported as “weaker COX-2 inhibition than ibuprofen”. Further, the “COX-2 inhibition compared to ibuprofen” value on COX-2 (50 µM) is “low COX-2 inhibition effect; also recorded: weaker COX-2 inhibition than ibuprofen”. The molecule also registered an IC50 with HIEC-6 cells of 47.6 ± 2.39 µM. In the data set on HIEC-6 cells (Homo sapiens, HIEC-6, 24 h), this molecule showed an IC50 of approximately 47 µM. In addition, in data set [3] (male, Sprague Dawley, 100 mg/kg (table: 100 mg dose), n = 6), the peak level (Cmax) was 2140 ± 880 ng/mL. In data set [3] (setting [5]), this molecule had an AUC(0-inf) of 13000 ± 5620 ng·h/mL, an AUC(0-t) of 9320 ± 4610 ng·h/mL, a CL/F of 148 mL/min/kg and a half-life of 216 ± 56.4 min. The Tmax in data set [3] (setting [5]) was found to be 1.3 ± 0.22 h. Besides, the MRT inf in data set [3] (male, Sprague Dawley, 100 mg/kg, n = 6, read-out: MRT0–∞) amounted to 7.66 ± 2.99 h. Besides, the Tmax in data set [3] (male, Sprague Dawley, 100 mg/kg) is 1.3 h. Further, the Vz in data set [3] (100 mg/kg, n = 6) is given as 55.46 ± 23.99 (mg)/(μg/mL). For the same molecule, the EC50 in data set [4] is approximately 30 µM. Also, the “DPPH radical scavenging activity” value in data set [4] (at 1000 µM) is “exceeding 90%”. Besides, the ROS scavenging activity in data set [4] (at 1000 µM (abstract)) came out at 96%.

For the origin of these results see PMC12024234, “Antioxidant, Anti-Inflammatory, and Oral Bioavailability of Novel Sulfonamide Derivatives of Gallic Acid” (Antioxidants, 2025).
